Test results reported in PubChem BioAssay AID1963965 (Molecular Pharmacology Branch, DTP, NCI, 2024).

Test system: 996289-038-R-J1-PDC spheroid viability
Assay: Anticancer human tumor 996289-038-R-J1-PDC patient-derived colon adenocarcinoma cell line growth inhibition [PI3K]
Conditions: spheroids with HUVEC and MSC; for IC50: curve of first compound; for viability, T/C: stronger effect = lower value
Description: Combinatorial screen of targeted agents with the PI3K inhibitors inavolisib, alpelisib, duvelisib, and copanlisib in multi-cell type tumor spheroids
A high-throughput screen of multi-cell type tumor spheroids was designed to identify active combinations of targeted small molecules and PI3K pathway inhibitors. Complex spheroids include a stromal component modeled by human endothelial cells (HUVEC) and fibroblasts modeled by human mesenchymal stem cells (MSCs). The concentration ranges selected for each drug and investigational agent were based upon clinically achievable concentrations if the clinical Cmax of the agent was known.
Compounds. The drugs and investigational agents: inavolisib (NSC800729), alpelisib (NSC765974), duvelisib (NSC772469), copanlisib (NSC816437), ipatasertib (NSC767898), afuresertib (NSC778305), talazoparib (NSC767125), sapanisertib (NSC764658), selumetinib (NSC741078), tovorafenib (DAY101, NSC766906), vemurafenib (NSC761431), ravoxertinib (NSC781343), sotorasib (NSC818433), MRTX1133 (NSC 836407), abemaciclib (NSC 768073), palbociclib (NSC758247), venetoclax (NSC 766270), SY5609 (NSC837396), enzalutamide (NSC755605), and darolutamide (NSC825331), were obtained from the National Cancer Institute (NCI) Developmental Therapeutics Program Chemical Repository. The FDA-approved anticancer drug set is available from the NCI Developmental Therapeutics Program. […] The stock solutions were prepared in dimethyl sulfoxide (DMSO, Sigma-Aldrich, St. Louis, MO, cat. D2650) at 800-fold the tested concentration and stored at -70 degrees C prior to their use. All drugs and investigational agents were tested over a range starting from a high concentration at or near the clinical Cmax and decreasing in half-log increments. If the clinical Cmax for an agent had not been determined, the highest concentration tested was 10 microM.
Cell Culture. All cells were maintained in an incubator at 37 degrees C and 5% CO2 with 95% humidity. The PDC lines were cultured according to standard operating procedures established by the NCI PDMR (https://pdmr.cancer.gov/sops/default.htm). All PDCs were thawed and cultured in Matrigel-coated flasks prepared with a working solution of 1X Ham's F-12 nutrient mix, without supplementation (Invitrogen, Waltham, MA, cat. 11765054), 100 U/mL penicillin-streptomycin (Invitrogen, cat. 15140122), and 2.5% Matrigel (Corning Inc., Corning, NY, cat. 354248) for the first three passages. The 354836-022-R-J1-PDC, 475296-252-R-J1-PDC, and 997726-040-R-J2-PDC lines were cultured in 6A media, which includes advanced DMEM/F-12 (Thermo Fisher Scientific, cat. 12634028), 10 mM HEPES (Thermo Fisher Scientific, cat. 15630080), 1X GlutaMAX supplement (Thermo Fisher Scientific, cat. 35050061), 0.1 mg/mL primocin (InvivoGen, San Diego, CA, cat. ant-pm-2), 10% defined fetal bovine serum, heat inactivated (HyClone Laboratories Inc., Logan, UT, cat. SH30070.03HI), 50% L-WRN conditioned media (ATCC, cat. CRL-3276), 1.25 mM N-Acetyl-L-cysteine (Sigma-Aldrich, cat. A9165), 10 mM nicotinamide (Sigma-Aldrich, cat. N0636), 1X B-27 supplement (Thermo Fisher Scientific, cat. 17504044), 1X N-2 supplement (Thermo Fisher Scientific, cat. 17502048), and 10 microM Y-27632 dihydrochloride (Tocris Bioscience, Bristol, United Kingdom, cat. 1254). The 624824-186-R-J2-PDC line was cultured in 6C/Colon 1B media, which includes all 6A media components plus 50 ng/mL human EGF recombinant protein (Thermo Fisher Scientific, cat. PHG0311). […]

[1] = second compound 0.00316 µM, first compound 0.0316 µM
[2] = second compound 0.00316 µM, first compound 0.1 µM
[3] = second compound 0.01 µM, first compound 0.0316 µM
[4] = second compound 0.01 µM, first compound 0.1 µM
[5] = second compound 0.0316 µM, first compound 0.0316 µM
[6] = second compound 0.0316 µM, first compound 0.1 µM
[7] = second compound 0.1 µM, first compound 0.0316 µM
[8] = second compound 0.1 µM, first compound 0.1 µM
[9] = second compound 0.316 µM, first compound 0.0316 µM
[10] = second compound 0.316 µM, first compound 0.1 µM
[11] = second compound 1 µM, first compound 0.0316 µM
[12] = second compound 1 µM, first compound 0.1 µM
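Also: spheroids exposed to compounds for seven days before viability read.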
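For viability, T/C in this document: luminescence used as a proxy for viable cell amount; percent viability relative to DMSO vehicle control as 100%.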

CC(C)NCC(C(=O)N1CCN(c2ncnc3c2C(C)CC3O)CC1)c1ccc(Cl)cc1 (centres undefined) + CC(Nc1ccc2c(c1)OCCn1cc(N3C(=O)OCC3C(F)F)nc1-2)C(N)=O
IC50 (second compound 0.00316 µM): > 10 µM | IC50 (second compound 0.01 µM): > 10 µM | IC50 (second compound 0.0316 µM): > 10 µM | IC50 (second compound 0.1 µM): > 10 µM | IC50 (second compound 0.316 µM): > 10 µM | IC50 (second compound 1 µM): > 10 µM | viability, T/C [1]: 86% | viability, T/C [2]: 95.3% | viability, T/C (second compound 0.00316 µM, first compound 0.316 µM): 98.6% | viability, T/C (second compound 0.00316 µM, first compound 1 µM): 98.1% | viability, T/C (second compound 0.00316 µM, first compound 3.16 µM): 85.3% | viability, T/C (second compound 0.00316 µM, first compound 10 µM): 66.8% | viability, T/C [3]: 87.2% | viability, T/C [4]: 88% | viability, T/C (second compound 0.01 µM, first compound 0.316 µM): 91.6% | viability, T/C (second compound 0.01 µM, first compound 1 µM): 91.8% | viability, T/C (second compound 0.01 µM, first compound 3.16 µM): 82.1% | viability, T/C (second compound 0.01 µM, first compound 10 µM): 54.7% | viability, T/C [5]: 105% | viability, T/C [6]: 91.6% | viability, T/C (second compound 0.0316 µM, first compound 0.316 µM): 88.7% | viability, T/C (second compound 0.0316 µM, first compound 1 µM): 88.4% | viability, T/C (second compound 0.0316 µM, first compound 3.16 µM): 78.5% | viability, T/C (second compound 0.0316 µM, first compound 10 µM): 53.6% | viability, T/C [7]: 79.8% | viability, T/C [8]: 71.1% | viability, T/C (second compound 0.1 µM, first compound 0.316 µM): 76% | viability, T/C (second compound 0.1 µM, first compound 1 µM): 80% | viability, T/C (second compound 0.1 µM, first compound 3.16 µM): 62% | viability, T/C (second compound 0.1 µM, first compound 10 µM): 67.5% | viability, T/C [9]: 57.9% | viability, T/C [10]: 81.2% | viability, T/C (second compound 0.316 µM, first compound 0.316 µM): 64.3% | viability, T/C (second compound 0.316 µM, first compound 1 µM): 65% | viability, T/C (second compound 0.316 µM, first compound 3.16 µM): 73.7% | viability, T/C (second compound 0.316 µM, first compound 10 µM): 46% | viability, T/C [11]: 64.9% | viability, T/C [12]: 57.1% | viability, T/C (second compound 1 µM, first compound 0.316 µM): 53.5% | viability, T/C (second compound 1 µM, first compound 1 µM): 55.3% | viability, T/C (second compound 1 µM, first compound 3.16 µM): 52.5% | viability, T/C (second compound 1 µM, first compound 10 µM): 53.5%

Cn1ncnc1[C@H]1c2n[nH]c(=O)c3cc(F)cc(c23)N[C@@H]1c1ccc(F)cc1 + CC(Nc1ccc2c(c1)OCCn1cc(N3C(=O)OCC3C(F)F)nc1-2)C(N)=O
IC50 (second compound 0.00316 µM): > 0.1 µM | IC50 (second compound 0.01 µM): > 0.1 µM | IC50 (second compound 0.0316 µM): > 0.1 µM | IC50 (second compound 0.1 µM): > 0.1 µM | IC50 (second compound 0.316 µM): > 0.1 µM | IC50 (second compound 1 µM): > 0.1 µM | viability, T/C (second compound 0.00316 µM, first compound 0.000316 µM): 109% | viability, T/C (second compound 0.00316 µM, first compound 0.001 µM): 104% | viability, T/C (second compound 0.00316 µM, first compound 0.00316 µM): 95% | viability, T/C (second compound 0.00316 µM, first compound 0.01 µM): 112% | viability, T/C [1]: 99.5% | viability, T/C [2]: 90.2% | viability, T/C (second compound 0.01 µM, first compound 0.000316 µM): 103% | viability, T/C (second compound 0.01 µM, first compound 0.001 µM): 102% | viability, T/C (second compound 0.01 µM, first compound 0.00316 µM): 103% | viability, T/C (second compound 0.01 µM, first compound 0.01 µM): 111% | viability, T/C [3]: 106% | viability, T/C [4]: 98.6% | viability, T/C (second compound 0.0316 µM, first compound 0.000316 µM): 114% | viability, T/C (second compound 0.0316 µM, first compound 0.001 µM): 85.7% | viability, T/C (second compound 0.0316 µM, first compound 0.00316 µM): 88.5% | viability, T/C (second compound 0.0316 µM, first compound 0.01 µM): 101% | viability, T/C [5]: 97.3% | viability, T/C [6]: 85.4% | viability, T/C (second compound 0.1 µM, first compound 0.000316 µM): 89.1% | viability, T/C (second compound 0.1 µM, first compound 0.001 µM): 87.6% | viability, T/C (second compound 0.1 µM, first compound 0.00316 µM): 77.5% | viability, T/C (second compound 0.1 µM, first compound 0.01 µM): 91.6% | viability, T/C [7]: 92% | viability, T/C [8]: 78.3% | viability, T/C (second compound 0.316 µM, first compound 0.000316 µM): 81.7% | viability, T/C (second compound 0.316 µM, first compound 0.001 µM): 77.8% | viability, T/C (second compound 0.316 µM, first compound 0.00316 µM): 81.2% | viability, T/C (second compound 0.316 µM, first compound 0.01 µM): 82.2% | viability, T/C [9]: 79.2% | viability, T/C [10]: 68.7% | viability, T/C (second compound 1 µM, first compound 0.000316 µM): 53% | viability, T/C (second compound 1 µM, first compound 0.001 µM): 59.8% | viability, T/C (second compound 1 µM, first compound 0.00316 µM): 68.6% | viability, T/C (second compound 1 µM, first compound 0.01 µM): 58.1% | viability, T/C [11]: 59.2% | viability, T/C [12]: 54.2%
